Assay results reported in patent US10935552B2, “Aie luminogens for visualization and treatment of cancer” (THE HONG KONG UNIVERSITY OF SCIENCE AND TECHNOLOGY, priority 2015, dated 2021).

Experiments:
HeLa cells [1] = experiment: MTT cell viability assay, HeLa cells; type: cell-based, human; conditions: HeLa, different concentrations, 24 hrs
Procedure: Hela cells were incubated with different concentrations of Naph-IQ in culture medium for 24 hours.
Before employing AIE-LysoY as a fluorescent visualizer of lysosome, a 3-(4,5-dimethyl-2-thiazolyl)-2,5-diphenyltetrazolium bromide (MTT) cell proliferation assay was first conducted to evaluate its cytotoxicity. […] The good biocompatibility of AIE-LysoY enables its application as a fluorescent tracer to follow the autophagic process of lysosome.

mitochondria = experiment: Co-staining with commercial organelle trackers in HeLa cells (mitochondria staining); type: cell-based, human
Procedure: The HeLa cells were grown overnight on a 35 mm petri dish with a cover slip. Then the HeLa cells were stained with 200 nM TPE-IQ-2O and Mito-tracker red (50 nM)/Lyso-tracker red (50 nM)/DAPI (500 nM) for 20 mins.
The DMSO solution of DPA-IQ was almost non-emissive while the aggregation state powder of this material emits strong green luminescence upon the UV excitation.
The commercially available MitoTracker Red FM is co-stained as a control together with Naph-IQ.

MCF-7 cells = experiment: Lysosomal imaging in MCF-7 cells, co-staining with LTR; type: cell-based; conditions: MCF-7, 50 nm TMX 24 hrs, matched with LTR
Procedure: The behavior of TPE-TMX in cellular settings was studied as compared to TMX. MCF-7 cells were incubated with 2 μM TPE-TMX and […] TMX for 24 hrs, respectively. The cells were then washed and directly observed under the microscope without fixation. […] However, the exact intracellular location of TMX cannot be confirmed by fluorescent microscopy because its emission wavelength is not in the range of the visible spectrum. Therefore, a series of commercial fluorescent markers were used to image drug delivery of TMX. […] On the other hand, TPE-TMX, without any aid of fluorescent dye, can be successfully monitored in the cells thanks to its intense blue emission. The controls display no emission under UV irradiation.
To further confirm the subcellular distribution of TPE-TMX, LTR was also used to co-stain MCF-7 cells with TPE-TMX. […] As expected, TPE-TMX is a specific fluorescent dye to visualize lysosomal organelle structures as well as monitor the drug release.

lysosome = experiment: Lysosome imaging in HeLa cells, co-staining with LTR; type: cell-based, human; conditions: HeLa cells
Procedure: Then, AIE-LysoY was applied to lysosome imaging and its lysosome-targeting performance was assessed by fluorescence microscope. HeLa cells were stained with 10 μM of AIE-LysoY for 10 min, followed by washing away the abundant molecules of AIE-LysoY and incubation with 50 nM of LTR for 30 min. […] The fluorescence of AIE-LysoY overlaps perfectly with that of LTR, indicating the lysosome-targeting of AIE-LysoY.
Quantitative analysis of the degree of overlapping of these two fluorescence signals by Pearson's coefficient (Rr), which depicts the degree of linear dependence between two variables, gives an overlapping coefficient of 0.90. The high Rr value proves that AIE-LysoY is a lysosome-selective probe. […] Changing the staining time from 10 min to 60 min, the specificity to lysosome is retained, as well as the emission contrast.
To design the lysosome-specific bioprobe, a molecular engineering approach was employed. The precursor of AIE-LysoY, FAS-Br, and two morpholine-functionalized AIEgens, TPE-2Mor and Nred-mor were prepared and applied to cell imaging. The molecular structures of TPE-2mor and Nred-mor are shown below: […]

HeLa cells [2] = experiment: Cancer cell imaging for HeLa cells (TTE, TFE, fl-TFE); type: cell-based, human; conditions: 10 μM; TTE in HeLa and A549, TFE and fl-TFE only in HeLa
Procedure: Cell Culture. HeLa cells were cultured in MEM containing 10% FBS and 1% antibiotics (100 units/mL penicillin and 100 µg/mL streptomycin) in a 5% CO2 humidity incubator at 37° C. Cell Imaging. Lung cancer cell A549 were cultured in DMEM containing 10% FBS and antibiotics (100 units/mL penicillin and 100 µg/mL streptomycin) in a 5% CO2 humidity incubator at 37° C. Two different kind of cells were grown overnight on a 35 mm petri dish with a cover slip. The live cells were incubated with 10 μM of TTE for 15/30 mins, TFE for 30′ and fl-TFE for 30′ and 5 h (the last two have been tested only in HeLa cells). In a typical experiment, 2 μL of a 10 mM stock solution of TTE in DMSO were diluted to 1 mL with cell culture medium, followed by further dilution to desired concentration. The cells were imaged under a fluorescent microscope (BX41 Microscope) using same excitation and emission filters: excitation filter=330-385 nm, dichroic mirror=420 nm, and emission filter=400 nm long pass.
The HeLa cells were grown overnight on a 35 mm petri dish with a cover slip. The live cells were incubated with 10 μM of TTE for 30 mins, which are shown in FIG. 17A-B. The HeLa cells were incubated with 50 μM oleic acid for 6 hrs and then were co-stained by 10 μM TTE and 1 μg/mL for 15 mins.

HepG2 cells = experiment: Cell imaging, HepG2 cells; type: cell-based, human; conditions: HepG2, 200 nM DPA-IQ, 10 min
Procedure: (§1) The PC-9, HepG2, and HCC827 cells were grown overnight on a 35 mm petri dish with a cover slip. The live cells were incubated with 200 nM of TPE-IQ-2O for 20 and 10 mins. In all the experiments, the cancer cells are fluorescent in solely staining.
(§2) HepG2 cells (human hepatocarcinoma cell line), PC-9 cells (human lung adenocarcinoma cell line), Hela cells (human cervical carcinoma cell line), and LX2 cells (normal cell, human hepatic stellate cell line) were stained with 200 nM DPA-IQ for 10 min. Images were taken under the same equipment settings. Scale bar: 30 μm. Excitation wavelength: 400-440 nm.

LX2 cells = experiment: Cell imaging, LX2 normal cells; type: cell-based, human; conditions: LX2, 200 nM DPA-IQ, 10 min
Procedure: The LX2 cells were grown overnight on a 35 mm petri dish with a cover slip. The live cells were incubated with 200 nM of TPE-IQ-2O for 20 and 10 mins.
as §2

HeLa cells [3] = experiment: Cell imaging under fluorescent microscope, HeLa cells; type: cell-based, human; conditions: Hela, 200 nM DPA-IQ, 10 min
Procedure: Cell culture: HeLa cells were cultured in the MEM containing 10% FBS and 1% antibiotics (100 units/mL penicillin and 100 µg/mL streptomycin) in a 5% CO2 humidity incubator at 37° C. COS-7, MDA-MB-231, MCF-7, and MDCK-II cells were culture in the DMEM containing 10% FBS and antibiotics (100 units/mL penicillin and 100 µg/mL streptomycin) in a 5% CO2 humidity incubator at 37° C.
Cell imaging: two different kind of cells were grown overnight on a 35 mm petri dish with a cover slip. The live cells were incubated with 200 nM of TPE-IQ-2O for 1, 5, 10, and 20 mins. In a typical experiment, 2 μL of a 10 mM stock solution of TPE-IQ-2O in DMSO was diluted to 2 mL with cell culture medium, followed by further dilution to desired concentration. The cells were imaged under a fluorescent microscope (BX41 Microscope) using the same excitation and emission filters: excitation filter=400-440 nm, dichroic mirror=455 nm, and emission filter=465 nm long pass.
Two different kinds of cells were grown overnight on a 35 mm petri dish with a cover slip. The live cells were incubated with 200 nM of TPE-IQ-20 for 20, 10, 5, and 1 mins. The Hela cells were stained by TPE-IQ-2O; the COS-7 cells were stained by TPE-IQ-2O; the Hela cells and COS-7 cells were co-cultured and stained together by TPE-IQ-2O. Condition: 200 nM (Filter: both close; Channel 5; EX: 400-440 nm; Exposure time: bright field: 1000 ms Fluorescence: 1000 ms.
Two different kinds of cells were grown overnight on a 35 mm petri dish with a cover slip. The live cells were incubated with 200 nM of TPE-IQ-2O for 10 mins. The Hela cells were stained by TPE-IQ-2O; the MDCKII cells were stained by TPE-IQ-2O; the MDA-MB-231 cells and COS-7 cells were co-cultured and stained together by TPE-IQ-2O. Condition: 200 nM 10 mins (Filter: both close; Channel 5; EX: 400-440 nm; Exposure time: bright field: 1000 ms Fluorescence: 1000 ms.
as §2

PC-9 cells = experiment: Cell imaging, PC-9 cells; type: cell-based, human; conditions: PC-9, 200 nM DPA-IQ, 10 min
Procedure: as §1, §2

| SMILES | Cytotoxicity by MTT assay (HeLa cells [1]) | Mitochondrial staining compared with MitoTracker Red FM (mitochondria) | Intracellular localisation of control probes (lysosome) | also measured |
| --- | --- | --- | --- | --- |
| CCC[n+]1cc2ccc(-c3ccc(N(c4ccccc4)c4ccccc4)cc3)cc2c(-c2ccccc2)c1-c1ccccc1 [TPA-IQ] | low cytotoxicity | can stain the mitochondrial organelle as well as the commercially available MitoTracker Red FM with higher resolution | – | – |
| CC/C(=C(\c1ccccc1)c1ccc(OCCN(C)C)cc1)c1ccccc1 [TMX, Tamoxifen, reference compound] | – | – | – | Subcellular distribution (MCF-7 cells): possible to be localized on the lysosomes |
| Oc1cc(OCCCCCCBr)ccc1/C=N/N=C1c2ccccc2-c2ccccc21 [FAS-Br, (E)-2-(((9H-fluoren-9-ylidene)hydrazono)methyl)-5-((6-bromohexyl)oxy)phenol] | – | – | lights up intracellular lipid droplets and the recticulum structures of mitochondria in HeLa cells rather than lysosomes | – |
| c1cc2c3ccoc3c3c4occc4c4ccoc4c3c2o1 [fl-TFE, Tetrafuro[2,3-a:3′,2′-c:2″,3″-f:3″′,2″′-h]-naphthalene] | – | – | – | Ability to enter cells as bioprobe (HeLa cells [2]): Only TTE has revealed to be useful for this purpose |
| CCC[n+]1cc2ccc(-c3cccc4c(OC)cccc34)cc2c(-c2ccccc2)c1-c1ccccc1 [Naph-IQ] | low cytotoxicity | can stain the mitochondrial organelle as good as MitoTracker Red FM with higher resolution | – | – |
| CCC[n+]1cc2ccc(N(c3ccccc3)c3ccccc3)cc2c(-c2ccccc2)c1-c1ccccc1 [DPA-IQ] | low cytotoxicity | can stain the mitochondrial organelle as good as the commercially available MitoTracker Red FM | – | Emission of stained cells (HepG2 cells): strong emission; Emission of stained cells (LX2 cells): faint emission; Emission of stained cells (HeLa cells [3]): strong emission; Emission of stained cells (PC-9 cells): strong emission |
| c1coc(C(=C(c2ccco2)c2ccco2)c2ccco2)c1 [TFE, Tetrakis(2-furyl)ethene] | – | – | – | Ability to enter cells as bioprobe (HeLa cells [2]): Only TTE has revealed to be useful for this purpose |
| CN(C)c1ccc(/C=C(\C#N)c2ccc(-c3cc[n+](CCCCCCN4CCOCC4)cc3)cc2)cc1 [Nred-mor] | – | – | selectively accumulates in the mitochondria | – |
| c1ccc(C(=C(c2ccccc2)c2ccc(CN3CCOCC3)cc2)c2ccc(CN3CCOCC3)cc2)cc1 [TPE-2Mor] | – | – | stains all the hydrophobic regions | – |
